We go through 42 compounds from US8426429B2, “2-amino-quinazoline derivatives useful as inhibitors of β-secretase (BACE)” (Jansssen Pharmaceutica N.V., priority 2004, dated 2013).

For this assay, the target named is T1, β-secretase (BACE) (Homo sapiens, UniProt P56817).
T1 construct: purchased Panvera
In words: BACE FS1 % Inhibition Assay. The class given is biochemical. The gist of the method:
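Percent inhibition per compound concentration was referenced to vehicle-treated enzyme and no-enzyme wells. Enzyme at a 4 μg/mL working stock plus compound was mixed for 20 min at room temperature before the FS1 substrate (300 μg/mL working stock) was added for a 1 h room-temperature reaction.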

T1 sequence (P56817 46-501): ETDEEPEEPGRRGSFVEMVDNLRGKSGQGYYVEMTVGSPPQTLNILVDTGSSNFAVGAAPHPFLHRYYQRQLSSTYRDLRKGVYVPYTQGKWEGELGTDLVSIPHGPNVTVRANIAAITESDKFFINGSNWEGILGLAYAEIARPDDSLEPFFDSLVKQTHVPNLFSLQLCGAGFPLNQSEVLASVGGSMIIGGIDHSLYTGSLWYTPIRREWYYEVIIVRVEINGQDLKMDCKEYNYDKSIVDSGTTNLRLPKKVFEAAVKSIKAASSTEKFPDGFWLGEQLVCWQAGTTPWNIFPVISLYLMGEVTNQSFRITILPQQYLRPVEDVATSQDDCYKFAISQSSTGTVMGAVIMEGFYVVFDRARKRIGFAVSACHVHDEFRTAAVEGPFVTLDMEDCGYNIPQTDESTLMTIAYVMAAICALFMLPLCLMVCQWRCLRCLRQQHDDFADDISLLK

Consider `CCCC(CNC(=O)C12CC3CC(CC(C3)C1)C2)N1Cc2cc(Oc3ccccc3)ccc2N=C1N` (stereo not shown) [Compound 602], for which the “% Inhibition (FS)” value was found to be 78% (0.3 μM test compound, 0.3 µM); 113% (1 μM test compound, 1 µM); 121% (3 μM test compound, 3 µM).
As to `CCC[C@H](CNC(=O)CCC(C)C)N1Cc2cc(Oc3ccccc3)ccc2N=C1N` [Compound 603], the “% Inhibition (FS)” value (0.3 μM test compound) was 101%, the “% Inhibition (FS)” value (1 μM test compound) turned out to be 114% and the “% Inhibition (FS)” value (3 μM test compound) amounted to 122%.
The corresponding values for `COc1ccccc1-c1ccc2c(c1)CN(Cc1cccc(C(=O)N(C)C3CCCCC3)c1)C(NC(C)=O)=N2` [Compound 607] are 94%, 116% and 123%.
The corresponding values for `NC1=Nc2ccc(Oc3ccccc3)cc2CN1C1CCCN(C(=O)C2CCCCC2)C1` (stereo not shown) [Compound 611] are under 30%, 36% and under 30%.
The corresponding values for `CCCC(CCC)C(=O)N1CCCC(N2Cc3cc(Oc4ccccc4)ccc3N=C2N)C1` (stereo not shown) [Compound 612] are under 30%, 34% and under 30%.
Consider `CC(C)CCC(=O)N1CCCC(N2Cc3cc(Oc4ccccc4)ccc3N=C2N)C1` (stereo not shown) [Compound 613], for which the “% Inhibition (FS)” value (0.3 μM test compound) was determined as 36%, the “% Inhibition (FS)” value (1 μM test compound) amounted to 31% and the “% Inhibition (FS)” value (3 μM test compound) is reported as under 30%.
For `NC1=Nc2ccc(Oc3ccccc3)cc2CN1C(CNC(=O)C1CCCCC1)Cc1ccc(O)cc1` (stereo not shown) [Compound 614], the “% Inhibition (FS)” value is, setting by setting: (0.3 μM test compound) under 30%; (1 μM test compound) under 30%; (3 μM test compound) under 30%.
Take `CC(C)CCC(=O)NCC(Cc1ccc(O)cc1)N1Cc2cc(Oc3ccccc3)ccc2N=C1N` (stereo not shown) [Compound 615]: the “% Inhibition (FS)” value (0.3 μM test compound) was under 30%, the “% Inhibition (FS)” value (1 μM test compound) was under 30% and the “% Inhibition (FS)” value (3 μM test compound) is on record as under 30%.
Consider `CN(C(=O)CCC(C1CCOCC1)N1Cc2cc(Oc3ccccc3)ccc2N=C1N)C1CCCCC1` (stereo not shown) [Compound 619], for which the “% Inhibition (FS)” value is 119% (0.3 μM test compound), 118% (1 μM test compound) and 125% (3 μM test compound).
The corresponding values for `COc1ccccc1-c1cc2c(cc1F)CN(CCC(=O)NC1C3CC4CC(C3)CC1C4)C(N)=N2` (stereo not shown) [Compound 620] are under 30%, under 30% and 37%.
Turning to `NC1=Nc2ccc(-c3ccc(F)cc3)cc2CN1CCNC(=O)C1CCCCC1` [Compound 623], the “% Inhibition (FS)” value by setting is: (0.3 μM test compound) under 30%; (1 μM test compound, 1 µM) under 30%; (3 μM test compound, 3 µM) 82%.
Consider `NC1=Nc2ccc(-c3ccc(F)cc3)cc2CN1CCNC(=O)C1CCCCC1` [Compound 624], for which the “% Inhibition (FS)” value (0.3 μM test compound) is listed as under 30%; the “% Inhibition (FS)” value (1 μM test compound, 1 µM) worked out at 38%; the “% Inhibition (FS)” value (3 μM test compound, 3 µM) was 78%.
Take `NC1=Nc2ccc(-c3ccc(Cl)cc3)cc2CN1CCNC(=O)C1CCCCC1` [Compound 626]: the “% Inhibition (FS)” value runs as follows: (0.3 μM test compound) under 30%; (1 μM test compound) under 30%; (3 μM test compound) 56%.
Turning to `Cc1ccc(-c2ccc3c(c2)CN(CCNC(=O)C2CCCCC2)C(N)=N3)cc1` [Compound 628], the “% Inhibition (FS)” value runs as follows: (0.3 μM test compound) under 30%; (1 μM test compound) under 30%; (3 μM test compound) 32%.
Turning to `COc1ccc(C)cc1-c1ccc2c(c1)CN(CCNC(=O)C1CCCCC1)C(N)=N2` [Compound 630], the “% Inhibition (FS)” value is under 30% (0.3 μM test compound), under 30% (1 μM test compound) and 48% (3 μM test compound).
Regarding `COc1ccc(F)cc1-c1ccc2c(c1)CN(CCNC(=O)C1CCCCC1)C(N)=N2` [Compound 631], the “% Inhibition (FS)” value is, setting by setting: (0.3 μM test compound) under 30%; (1 μM test compound) under 30%; (3 μM test compound) 48%.
For `CN(C(=O)CCC(C1CCCCC1)N1Cc2cc(Oc3ccccc3)ccc2N=C1N)C1CCOCC1` (stereo not shown) [Compound 633], the “% Inhibition (FS)” value (0.3 μM test compound) is under 30%, the “% Inhibition (FS)” value (1 μM test compound) came to 30% and the “% Inhibition (FS)” value (3 μM test compound) came to 70%.
The corresponding values for `NC1=Nc2ccc(Oc3ccccc3)cc2CN1CC(NC(=O)C1CCCCC1)C1CCCCC1` (stereo not shown) [Compound 637] are under 30%, under 30% and 73%.
The corresponding values for `CN(C(=O)CCC(C1CCCCC1)N1Cc2cc(Oc3ccccc3)ccc2N=C1N)C1CCC(O)CC1` (stereo not shown) [Compound 639] are under 30%, under 30% and 48%.
The corresponding values for `NC1=Nc2ccc(Oc3ccccc3)cc2CN1Cc1ocnc1C(=O)NC1CCCCC1` [Compound 640] are under 30%, under 30% and under 30%.
As to `CN(C(=O)c1ncoc1CN1Cc2cc(Oc3ccccc3)ccc2N=C1N)C1CCCCC1` [Compound 641], the “% Inhibition (FS)” value by setting is: (0.3 μM test compound) under 30%; (1 μM test compound) under 30%; (3 μM test compound) 48%.
For `NC1=Nc2ccc(-c3ccccc3F)cc2CN1CCNC(=O)C1CCC1` [Compound 642], the “% Inhibition (FS)” value (0.3 μM test compound) came out at 37%, the “% Inhibition (FS)” value (1 μM test compound) is listed as 63% and the “% Inhibition (FS)” value (3 μM test compound) is 96%.
The corresponding values for `NC1=Nc2ccc(-c3ccccc3F)cc2CN1CCNC(=O)C1CCCC1` [Compound 643] are 74%, 92% and 110%.
The corresponding values for `NC1=Nc2ccc(-c3ccccc3F)cc2CN1CCNC(=O)C12CC3CC(CC(C3)C1)C2` [Compound 644] are 46%, 72% and 104%.
As to `CCCC(=O)NCCN1Cc2cc(-c3ccccc3F)ccc2N=C1N` [Compound 645], the “% Inhibition (FS)” value (0.3 μM test compound) came out at 67%, the “% Inhibition (FS)” value (1 μM test compound) is on record as 57% and the “% Inhibition (FS)” value (3 μM test compound) turned out to be 91%.
As for `CC(C)(C)C(=O)NCCN1Cc2cc(-c3ccccc3F)ccc2N=C1N` [Compound 646], the “% Inhibition (FS)” value is, setting by setting: (0.3 μM test compound) 52%; (1 μM test compound) 72%; (3 μM test compound) 97%.
The corresponding values for `CCCCC(CC)C(=O)NCCN1Cc2cc(-c3ccccc3F)ccc2N=C1N` (stereo not shown) [Compound 648] are 39%, 74% and 104%.
Consider `NC1=Nc2ccc(-c3ccccc3Cl)cc2CN1CCNC(=O)C1CCC1` [Compound 649], for which the “% Inhibition (FS)” value by setting is: (0.3 μM test compound) 34%; (1 μM test compound) 65%; (3 μM test compound) 95%.
On to `NC1=Nc2ccc(-c3ccccc3Cl)cc2CN1CCNC(=O)C1CCCC1` [Compound 650], for which the “% Inhibition (FS)” value runs as follows: (0.3 μM test compound) 72%; (1 μM test compound) 94%; (3 μM test compound) 112%.
With `NC1=Nc2ccc(-c3ccccc3Cl)cc2CN1CCNC(=O)C12CC3CC(CC(C3)C1)C2` [Compound 651], the “% Inhibition (FS)” value runs as follows: (0.3 μM test compound) under 30%; (1 μM test compound) 51%; (3 μM test compound) 96%.
The corresponding values for `CCCC(=O)NCCN1Cc2cc(-c3ccccc3Cl)ccc2N=C1N` [Compound 652] are 31%, 63% and 91%.
The corresponding values for `CC(C)(C)C(=O)NCCN1Cc2cc(-c3ccccc3Cl)ccc2N=C1N` [Compound 653] are 46%, 82% and 101%.
The corresponding values for `CCCCC(CC)C(=O)NCCN1Cc2cc(-c3ccccc3Cl)ccc2N=C1N` (stereo not shown) [Compound 655] are 45%, 79% and 104%.
In the case of `Cc1ccccc1-c1ccc2c(c1)CN(CCNC(=O)C1CCC1)C(N)=N2` [Compound 656], the “% Inhibition (FS)” value is reported as 56% (0.3 μM test compound), 87% (1 μM test compound) and 104% (3 μM test compound).
The corresponding values for `Cc1ccccc1-c1ccc2c(c1)CN(CCNC(=O)C13CC4CC(CC(C4)C1)C3)C(N)=N2` [Compound 658] are under 30%, 62% and 100%.
The corresponding values for `CCCC(=O)NCCN1Cc2cc(-c3ccccc3C)ccc2N=C1N` [Compound 659] are 43%, 69% and 100%.
The corresponding values for `Cc1ccccc1-c1ccc2c(c1)CN(CCNC(=O)C(C)(C)C)C(N)=N2` [Compound 660] are 63%, 86% and 105%.
Turning to `Cc1ccccc1-c1ccc2c(c1)CN(CCNC(=O)CCC(C)C)C(N)=N2` [Compound 661], the “% Inhibition (FS)” value runs as follows: (0.3 μM compound, FS1 substrate) 68%; (1 μM compound, FS1 substrate) 98%.
Regarding `CCCCC(CC)C(=O)NCCN1Cc2cc(-c3ccccc3C)ccc2N=C1N` (stereo not shown) [Compound 662], the “% Inhibition (FS)” value (0.3 μM compound, FS1 substrate) is on record as 66% and the “% Inhibition (FS)” value (1 μM compound, FS1 substrate) came out at 97%.
With `NC1=Nc2ccc(-c3ccc4ccccc4c3)cc2CN1CCNC(=O)C1CCC1` [Compound 663], the “% Inhibition (FS)” value is reported as under 30% (0.3 μM compound, FS1 substrate); under 30% (1 μM compound, FS1 substrate); under 30% (3 μM compound, FS1 substrate).
Regarding `NC1=Nc2ccc(-c3ccc4ccccc4c3)cc2CN1CCNC(=O)C1CCCC1` [Compound 664], the “% Inhibition (FS)” value (0.3 μM compound, FS1 substrate) was under 30%; the “% Inhibition (FS)” value (1 μM compound, FS1 substrate) is listed as under 30%; the “% Inhibition (FS)” value (3 μM compound, FS1 substrate) is under 30%.
In the case of `NC1=Nc2ccc(-c3ccc4ccccc4c3)cc2CN1CCNC(=O)C12CC3CC(CC(C3)C1)C2` [Compound 665], the “% Inhibition (FS)” value is, setting by setting: (0.3 μM compound, FS1 substrate) 35%; (1 μM compound, FS1 substrate) under 30%; (3 μM compound, FS1 substrate) under 30%.
